For data set [1], the system named is promoter of the gene COX-2. In words: Inhibition of the induction of COX-2: stable transfectant JURKAT cells, COX-2 promoter-luciferase, TPA+ionomycine. The data set is classed as cell-based. As to conditions: Homo sapiens.
The test system of a further data set is NC59. The data set can be described thus: Cytotoxicity (XTT kit), human colon carcinoma cell line NC59. The data set is classed as cell-based. As to conditions: for IC50: read-out: IC-50 (cytotoxicity). Here is the method: (§1) The anti-tumoral activity of the compounds with general formula (I) was studied, determining their effect on cell lines of human colon carcinoma (TD 20 and NC 59). The two cell lines have the wild protein K-Ras. TD20 contains a mutation of the p53 suppressor gene, while NC59 has the p53 wild protein.
(§2) Both cell lines were cultured in a DMEM medium (Life Technologies) supplemented with 10% foetal bovine serum (Life Technologies) at 37° C. and 5% CO2.
(§3) Cytotoxicity tests were carried out using the XTT kit (Boehringer-Manheim) which measures the cell capability to metabolise a tetrazoyl salt to formazan.

The subject of a further data set is TD 20. In words: Cytotoxicity (XTT kit), human colon carcinoma cell line TD20. The data set is classed as cell-based. To be noted: for IC50: read-out: IC-50 (cytotoxicity). Here is the method: as §1, §2, §3
The next data set has as its system MDAMB 453. The data set can be described thus: Cytotoxicity (XTT kit), mammary carcinoma cell line MDAMB 453. It is filed as cell-based. As to conditions: for IC50: read-out: IC-50 (cytotoxicity). Here is the method:
The anti-tumoral activity of the compounds with general formula (I) was studied, determining their effect on a mammary carcinoma cell line (MDAMB 453). The cell line was cultured in a DMEM medium (Life Technologies) supplemented with 10% foetal bovine serum (Life Technologies) at 37° C. and 5% CO2.
as §3

In data set [2] the test system is promoter of the human VEGF gene. In words: Inhibition of the induction of VEGF: promoter-luciferase in transfected Caco-2 cells, TPA. To be noted: TPA 16 hours, read-out: Inhibition of the induction of VEGF IC-50. The data set is classed as cell-based. An excerpt: This activity has been studied determining the inhibition of the induction of the expression of VEGF. The increased expression of vascular-endothelial growth factor (VEGF) has been related to tumour progression and angiogenesis. VEGF is a proangiogenic factor, promoting mitogenesis, migration and an increased vascular permeability of in vitro endothelial cells. It has been shown recently that COX-2 can regulate the angiogenesis process induced by colon cancer cells, increasing the expression of proangiogenic factors by said cells. Inhibition of COX-2 may block this process, inhibiting the expression of some of these factors, such as VEGF.
(§4) In order to study the antiangiogenic activity of the products with general formula (I), the expression of the VEGF promoter was studied in a basal and stimulated situation using the Caco-2 human colon carcinoma cell line, temporally transfected with a vector containing the promoter f the human VEGF gene. Once the test conditions were established the capability of the product studied to inhibit the expression of the VEGF and TF genes was studied by measuring the luciferase activity of their promoters.
In the test 1.25×10^5 Caco-2 cells were used temporally transfected with t corresponding DNA in 500 μl of DEMEM-10% FCS medium in 24 dimple plates. […]

The subject of a further data set is TF. In words: Inhibition of the induction of TF: promoter-luciferase in transfected Caco-2 cells, TPA. The data set is classed as cell-based. As to conditions: Homo sapiens, TPA 16 hours, read-out: Inhibition of the induction of TF IC-50.
Description: In turn, VEGF also induces the expression of Tissue Factor (TF) in monocyte membranes, epithelial cells and endothelium. Although the main function of TF is to initiate the coagulation cascade, it can transduce intracellular signals participating in metastasis and angiogenesis associated to tumours. TF facilitates in vivo growth of the tumour, favouring angiogenesis.
as §4
In the test 1.25×10^5 Caco-2 cells were used temporally transfected with t corresponding DNA in 500 μl of DEMEM-10% FCS medium in 24 dimple plates. The cells were pre-treated for 1 hour with the compounds to be tested, and later stimulated with TPA for 16 hours. Afterwards cell extracts were obtained and their luciferase activity examined, determining the protein concentration.

The subject of the next data set is TNF-α. In words: Inhibition of TNF-α, zymosan air pouch model in mice (ELISA). The data set is classed as in vivo. To be noted: i.p. As for the experimental part:
The study of the inhibitory activity of TNF-α has been performed according to the method described by P. Klemen et al. (Europ. J. Pharmacol. 1995 281: 69-74), consisting of determining the production of TNF-α in the localised area where the inflammation is acute, specifically using the zymosan inflated air pouch model in mice. The TNF-α present in the inflammatory exudates produced in said pouch as a result of the stimulation with zymosan was determined. The analytical determination of TNF-α was performed by ELISA.

Where [3] appears, read: Homo sapiens, Colon carcinoma cell, 1 μM, read-out: % Viability of colorectal cancer cells ± SD.
[4] abbreviates: Homo sapiens, Colon carcinoma cell, 20 μM, read-out: % Viability of colorectal cancer cells ± SD.
Where [5] appears, read: Homo sapiens, Colon carcinoma cell, 40 μM, read-out: % Viability of colorectal cancer cells ± SD.
[6] abbreviates: Homo sapiens, Colon carcinoma cell, 60 μM, read-out: % Viability of colorectal cancer cells ± SD.
[7] abbreviates: Homo sapiens, Colon carcinoma cell, 80 μM, read-out: % Viability of colorectal cancer cells ± SD.
The mark [8] stands for this setting: Homo sapiens, Colon carcinoma cell.

Each structure is given as a SMILES string. ≈ marks a conversion by molar mass, not a printed value. Like-named read-outs stand apart in the source and are kept apart here.

Regarding `CS(=O)(=O)c1ccc(N2N=C(C(F)(F)F)CC2c2ccc(F)c(F)c2)cc1` (stereo not drawn) [Example 25], the melting point is 132 to 135 °C.
`NS(=O)(=O)c1ccc(N2N=C(C(F)(F)F)CC2c2ccc(Cl)cc2Cl)cc1` (stereo not drawn) [Example 13]: the melting point was in the range of 143 to 145 °C.
Same read-out and setting: in the case of `Cc1ccc(C2CC(C(=O)O)=NN2c2ccc(S(N)(=O)=O)cc2)cc1` (stereo not drawn) [Example 34] it was 172 to 176 °C; in that of `CC1=NN(c2ccc(S(C)(=O)=O)cc2)C(c2ccc(C(F)(F)F)cc2)C1` (stereo not drawn) [Example 33], 136 to 138 °C; in that of `CS(=O)(=O)c1ccc(N2N=C(C(F)(F)F)CC2c2ccccc2F)cc1` (stereo not drawn) [Example 17], 117 to 121 °C.
The molecule `CS(=O)(=O)c1ccc(N2N=C(C(F)(F)F)CC2c2ccc(Cl)cc2Cl)cc1` (stereo not drawn) [Example 12] showed a melting point of 198 to 200 °C.
`Cc1ccc(C2CC(C#N)=NN2c2ccc(S(C)(=O)=O)cc2)cc1` (stereo not drawn) [Example 43] returned a melting point of 162 to 164 °C.
Still for that read-out and setting: then `NC(=O)C1=NN(c2ccc(S(N)(=O)=O)cc2)C(c2ccccc2)C1` (stereo not drawn) [Example 40], with 200 to 205 °C; and `COC(=O)C1=NN(c2ccc(S(N)(=O)=O)cc2)C(c2ccc(C)cc2)C1` (stereo not drawn) [Example 37], with 192 to 197 °C; and `COc1ccc(C2CC(C(F)(F)F)=NN2c2ccc(S(N)(=O)=O)cc2)c(C)c1` (stereo not drawn) [Example 56], with 148 to 150 °C.
With `COc1ccc(C2CC(C(F)(F)F)=NN2c2ccc(S(N)(=O)=O)cc2)c(OC)c1` (stereo not drawn) [Example 48], the melting point lay within 121 to 126 °C.
In turn, `Cc1ccc(C2CC(C(N)=O)=NN2c2ccc(S(C)(=O)=O)cc2)cc1` (stereo not drawn) [Example 42] came in with a melting point of 128 to 132 °C.
Take `CS(=O)(=O)c1ccc(C2CC(C(F)(F)F)=NN2c2ccc(F)cc2)cc1` (stereo not drawn) [Example 10]: the inhibition at 0.5 µg/mL in data set [1] (Clone C7, 0.5 μg/ml) turned out to be 20%; in data set [1] (Clone C9, 0.5 μg/ml) it was 40%; in data set [1] (Clone F9, 0.5 μg/ml), 32%. Further, the inhibition at 5 µg/mL in data set [1] (Clone C7, 5 μg/ml) was 55%; in data set [1] (Clone C9, 5 μg/ml), 75%; in data set [1] (Clone F9, 5 μg/ml) it was 65%. Also, the inhibition at 50 µg/mL worked out at 85% in data set [1] (Clone C7, 50 μg/ml); 85% in data set [1] (Clone C9, 50 μg/ml); 95% in data set [1] (Clone F9, 50 μg/ml). The IC50 was 5.8 µg/mL (≈ 15 µM) in data set [1] (Clone C7, read-out: IC-50 (μg/ml), inhibition of luciferase activity); 0.9 µg/mL (≈ 2.33 µM) in data set [1] (Clone C9, read-out: IC-50 (μg/ml), inhibition of luciferase activity); 1.8 µg/mL (≈ 4.66 µM) in data set [1] (Clone F9, read-out: IC-50 (μg/ml), inhibition of luciferase activity); 27 µM in the data set with NC59 (setting [8]); 27.2 µM in the data set with NC59; 38 µM in the data set with TD 20 (setting [8]). Also, the IC50 was 37.9 µM in the data set on TD 20; 18 µM in the data set on MDAMB 453 (Homo sapiens, MDA-MB-453, MDAMB 453); 17.9 µM in the data set with MDAMB 453 (MDAMB 453); 25 µg/mL (≈ 64.7 µM) in data set [2]; 22 µg/mL (≈ 56.9 µM) with TF. In addition, the viability at 1 µM in the data set with NC59 (setting [3]) came to 92.1 ± 9.35%; with TD 20 (setting [3]), 95 ± 8.87%; in the data set on MDAMB 453 (Homo sapiens, MDA-MB-453, MDAMB 453, 1 μM, read-out: % Viability of mammary cancer cells ± SD) it was 97.5 ± 3.25%. Further, the viability at 20 µM came to 76.1 ± 7.17% in the data set with NC59 (setting [4]); 90.2 ± 5.97% in the data set with TD 20 (setting [4]); 42.8 ± 9.31% in the data set on MDAMB 453 (Homo sapiens, MDA-MB-453, MDAMB 453, 20 μM, read-out: % Viability of mammary cancer cells ± SD). The viability at 40 µM in the data set with NC59 (setting [5]) is 15.8 ± 9.37%; in the data set on TD 20 (setting [5]) it was 43.1 ± 13.8%; with MDAMB 453 (Homo sapiens, MDA-MB-453, MDAMB 453, 40 μM, read-out: % Viability of mammary cancer cells ± SD), 33.3 ± 7.34%. Besides, the viability at 60 µM was found to be 2.59 ± 1.54% in the data set on NC59 (setting [6]); 5.42 ± 4.11% in the data set with TD 20 (setting [6]); 8.25 ± 6.82% with MDAMB 453 (Homo sapiens, MDA-MB-453, MDAMB 453, 60 μM, read-out: % Viability of mammary cancer cells ± SD). Besides, the viability at 80 µM in the data set on NC59 (setting [7]) stood at 1.66 ± 1.57%; in the data set on TD 20 (setting [7]), 3.22 ± 3.46%; with MDAMB 453 (Homo sapiens, MDA-MB-453, MDAMB 453, 80 μM, read-out: % Viability of mammary cancer cells ± SD) it was 5.8 ± 4.76%. Further, the “% Inhibition of TNF-α in inflammatory exudate stimulated by zymosan” value is listed as 12.6 ± 2.6% in the data set on TNF-α (0.039 mg/kg), 15.7 ± 4.9% in the data set on TNF-α (0.156 mg/kg), 46.8 ± 12.5% in the data set on TNF-α (0.625 mg/kg) and 58.8 ± 13.6% in the data set on TNF-α (2.5 mg/kg). Besides, the “DE-50, inhibition of TNF-α” value in the data set on TNF-α is given as “DE-50 = 1.20 mg/kg, i.p”.
Take `CC1=NN(c2ccc(S(C)(=O)=O)cc2)C(c2ccc(C)cc2)C1` (stereo not drawn) [Example 29]: the melting point fell in the range of 113 to 117 °C.
Molecule `CS(=O)(=O)c1ccc(C2CC(C(F)(F)F)=NN2c2ccc(Cl)cc2Cl)cc1` (stereo not drawn) [Example 74] showed a melting point of 103 to 106 °C.
As for `COc1ccc(C2CC(C(F)(F)F)=NN2c2ccc(S(N)(=O)=O)cc2)cc1F` (stereo not drawn) [Example 46], the melting point is 108 to 114 °C.
The molecule `CS(=O)(=O)c1ccc(C2CC(C(F)(F)F)=NN2c2ccccc2)cc1` (stereo not drawn) [Example 66] returned a melting point of 114 to 115 °C.
The same measure, in the same setting: then `COC(=O)C1=NN(c2ccc(S(C)(=O)=O)cc2)C(c2ccc(C)cc2)C1` (stereo not drawn) [Example 39], with 155 to 160 °C.
Regarding `CS(=O)(=O)c1ccc(C2CC=NN2c2ccc(F)cc2)cc1` (stereo not drawn) [Example 78], the melting point lay within 155 to 160 °C.
On the same count and under the same terms, then `Cc1ccc(C2CC(C(F)(F)F)=NN2c2ccc(S(N)(=O)=O)cc2)cc1C` (stereo not drawn) [Example 44], with 152 to 155 °C; and `NS(=O)(=O)c1ccc(N2N=C(C(F)(F)F)CC2c2ccc(F)c(F)c2)cc1` (stereo not drawn) [Example 11], with 153 to 155 °C.

Values taken from patent US20040034082A1, “Utilization of pyrazoline derivatives in the preparation of a medicament for the prevention and/or treatment of proliferative cell diseases” (priority 2001, published 2004).
